Reference: BigSolDB 2.1

O=C(O)CNC(=O)C(=O)NCC(=O)O
solubility (mole fraction)
Conditions	293.15 K	298.15 K	303.15 K	308.15 K	313.15 K	318.15 K	323.15 K	328.15 K	333.15 K
in DMF	0.0292	0.0401	0.0519	0.0629	0.0732	0.082	0.0879	0.0909	0.0923
in DMSO	0.0675	0.0736	0.0807	0.0879	0.0963	0.105	0.114	0.124	0.136
in THF	3.5e-06	1.41e-05	4.17e-05	9.96e-05	0.000203	0.000354	0.000527	0.000715	0.000892
in acetonitrile	1.6e-06	3.2e-06	5.6e-06	9.2e-06	1.41e-05	2.01e-05	2.73e-05	3.62e-05	4.71e-05
in ethanol	2.08e-05	3.75e-05	6.27e-05	0.000104	0.000155	0.000216	0.00029	0.000382	0.0005
in ethyl acetate	4.3e-06	6e-06	7.8e-06	1.04e-05	1.38e-05	1.81e-05	2.24e-05	2.76e-05	3.37e-05
in isopropanol	7.7e-06	1.47e-05	2.59e-05	4.71e-05	7.77e-05	0.000118	0.000174	0.000246	0.000355
in methanol	0.000159	0.000222	0.000303	0.000409	0.000527	0.000663	0.000816	0.000997	0.00121
in n-butanol	2.9e-06	5.3e-06	1e-05	1.77e-05	3.06e-05	5.12e-05	7.95e-05	0.00012	0.00019
in n-propanol	5.9e-06	8.2e-06	1.3e-05	2.06e-05	3.41e-05	5.83e-05	0.000104	0.000198	0.000355
in water	0.000127	0.000183	0.000267	0.000362	0.00048	0.000634	0.000816	0.00105	0.00136
